Measurements from article PMC12658820, “Development of Tunable Rose Bengal-Based nanoGUMBOS as Potential Selective Chemotherapeutic Agents” (ACS Omega, 2025).
Where “and” joins values, the source holds several entries; their conditions need not be identical. Identical values can stand only once. Entries after “also recorded” stand apart in the source; their conditions may differ. Counter-ions that a name gives are not always drawn.

Legend:
[1] = Dynamic light scattering (DLS) nanoparticle size; assay type: physicochemical; conditions: 10 μM solutions of nanoGUMBOS
Experimental: (§1) The series of RB-based nanoGUMBOS was synthesized by a simple reprecipitation method to form nanoparticles from a 10 mM RB-based GUMBOS stock solution in MeOH or DMSO. Briefly, a small aliquot of a MeOH/DMSO solution of each RB-based GUMBOS was rapidly introduced into a large volume of an aqueous cell medium (Dulbecco’s modified Eagle’s medium (DMEM), containing 10% fetal bovine serum) or water under ultrasonication. In this condition, a supersaturation of the hydrophobic RB-based GUMBOS is achieved in the aqueous system, leading to the precipitation of the RB-based GUMBOS into small particles. After that, the solution was placed on the bench and allowed to rest for a period of 15 min to allow the nucleation of the nanoparticles.
(§2) Once the incubation period concluded, DLS and S-TEM instruments were used to characterize the nanoGUMBOS. Dynamic light scattering was performed using a Malvern Zetasizer. […] Each compound was scanned at 25 °C for 10 s each scan, and the system automatically adjusted the scans needed per run. S-TEM was employed via the use of a JEOL-SEM 7600F instrument, with a vacuum pressure of 1.9E^–4 Pa, electron beam at 30,000 V, and amplified current of […], with each micrograph content being produced at 8000× magnification. ImageJ software was used for the measurements of electron micrograph images. The polydispersity index from the TEM micrograph was calculated using eq . 1 PDI=sizedeviation(σ)/sizemean(μ)

[2] = system: HEK293 human embryonic kidney cells; assay: Confocal microscopy cell viability (DAPI-stained nuclei), HEK293; assay type: cell-based; conditions: 10 μM nanoGUMBOS; for cell viability versus control, statistical significance, HEK293: unpaired t-test
Experimental: (§3) HEK293 or A549 Cells were collected from a T-25 culture flask following a standard cell culture harvesting procedure. A549 cells were diluted in cell culture media to a concentration of roughly 1,35,000 cells/mL. From this, the cells were loaded into individual chambers on an eight-chamber microscope slide, with a cell count per chamber of roughly 60,000 cells. This slide was then placed in an incubator (37 °C and 5.0% CO2 conditions) for 24 h before treating. When the treatment began, the original cell culture media was removed from the cells, and a compound/media mixture was added to each well. A control group of only cell culture media/DMSO was prepared and applied to one chamber in the slide, with the others consisting of treatment groups, following a serial dilution from 10 μM down to 0.15625 μM. After applying the treatment, the plate was returned to the incubator for 24 h. Following the incubation period, the cells were fixed using a 4% formaldehyde solution in the PBS buffer for 15 min at room temperature. After 15 min, the cells were washed three times with PBS. Then, to prepare the cells for staining, 0.5% Triton X-100 in PBS was applied to the cells for 15 min at room temperature. This was followed by three washes with PBS again. A 3% bovine serum albumin in PBS buffer was added to the cells for 60 min to block potential nonspecific binding sites for later 4′,6-diamidino-2-phenylindole (DAPI) staining. Another three washes with PBS were applied to the cells, and the cells were stained with a 1 μg/mL solution of DAPI and a mounting solution.
(§4) The imaging method employed fluorescence microscopy for nuclear staining visualization, allowing for an accurate quantification of viable cells based on intact nuclear morphology. ImageJ software was used to count the cell nuclei in each image. To avoid background signal, the software was set to only include nuclei of 20 μm^2 or larger. Viability quantification was performed by counting intact, properly stained nuclei and expressing results as a percentage of control values, with error bars representing standard error of the mean (SEM) from triplicate experiments. Statistical analysis was performed using unpaired t-tests with significance set at p < 0.05. Each nanoGUMBOS treatment was compared independently to control within the same cell lines, representing planned pairwise comparisons rather than exploratory testing. Given this, each nanoGUMBOS formulation that reduces cell viability will be assessed for an untreated cell line. Comparisons are made within discrete experimental groups for each cell line; thus, the unpaired t-test is employed. Dose–response curves and IC50 values were generated using a four-parameter logistic regression model implemented in Python (v3.12) within Jupyter Notebook (Anaconda distribution). Curve fitting was performed with the SciPy package (version 1.13), and figures were prepared using Matplotlib (v3.9). The rationale for selecting A549 (lung carcinoma) and HEK293 (noncancerous embryonic kidney) cell lines was based on their well-characterized nature and widespread use in cancer research, representing a relevant cancer model and a noncancerous control, respectively. […] Selectivity will be calculated using eq . 5 SI=cytotoxicityofA549cells/cytotoxicityofHEK293cells

[3] = system: A549 lung carcinoma cells; assay: Confocal microscopy cell viability (DAPI-stained nuclei), A549; assay type: cell-based, human; conditions: for average viability decrease, A549 / average cell viability, A549 / cell viability versus control, statistical significance, A549: 10 μM nanoGUMBOS; for average cell viability, A549: no light activation, % of control; for cell viability versus control, statistical significance, A549: unpaired t-test; for selectivity index (SI): cytotoxicity of A549 cells / cytotoxicity of HEK293 cells; for nuclear morphology in fluorescence imaging: DAPI staining, in the dark, A549 and HEK293 imaged
Experimental: as §3, §4

DLS ζ-potential = assay type: physicochemical; conditions: nanoGUMBOS, triplicate
Experimental: Ultraviolet–visible (UV–vis) absorption was measured between 560 and 562 nm using a Jasco V-750 spectrophotometer for the characterization of GUMBOS and nanoGUMBOS experiments. Fluorescence excitation and emission spectra were recorded using a Jasco FP-8500 fluorescence spectrophotometer. Fourier transform infrared (FT-IR) spectra were collected using a Thermo Scientific Nicolet iS20 instrument with 256 scans and a resolution of 4 cm^–1. A JEOL JSM 7600F scanning electron microscope (SEM) was employed for surface imaging and analysis of samples. A Mettler Toledo pH meter was used for measuring the pH of the various solutions. Ultrafast liquid chromatography (UFLC) coupled with a SHIMADZU electrospray ionization-mass spectrometer (ESI-MS) system was used for the characterization of the synthesized GUMBOS. ^1H and ^13C NMR spectra were collected using a JEOL ECZL-400S NMR spectrometer (400 MHz, CCRL05) equipped with a 24-position autosample changer and autotune probe. Dynamic light scattering (DLS) and ζ-potential measurements were conducted by using a Malvern Zetasizer Nano-Series system. The blood–brain barrier permeability was assessed by using a Bioassay Systems Parallel Artificial Membrane Permeability Assay-BBB Kit. Confocal fluorescence imaging was performed using a Zeiss confocal laser scanning microscope, LSM-710, equipped with an inverted Axio Observer Z1 platform and Airyscan detection. Triple-deionized water was purified by using a Millipore Milli-Q system.
as §2, with “ImageJ software was used for the measurements of electron micrograph images.” left out, “1 PDI=sizedeviation(σ)/sizemean(μ)” left out

[4] = Octanol/water partition experiments; assay type: physicochemical; conditions: stirred 24 h, absorbance at 562 nm, triplicate
S-TEM nanoparticle size = assay type: physicochemical; conditions: for TEM mean size / TEM PDI: 10 μM solutions of nanoGUMBOS; for TEM PDI: size deviation/size mean
Experimental: as §1, §2

A549 cells = system: A549 cells; design: method as in numbers not shown in text; conditions: literature comparison, ref numbers not shown in text; cited from earlier work

Compound | DLS PDI [1] | DLS mean size [1] | DLS mean size ([1]; listed as [TPP] 2 [RB]) | cell viability versus control, statistical significance, HEK293 [2] | average viability decrease, A549 ([3]; 24 h) | average cell viability, A549 ([3]; 24 h) | cell viability versus control, statistical significance, A549 [3] | selectivity index (SI) [3] | nuclear morphology in fluorescence imaging ([3]; nanoGUMBOS, 24 h) | ζ-potential (DLS ζ-potential) | K o/w (octanol–water partition constant) [4] | TEM mean size (S-TEM nanoparticle size) | TEM PDI (S-TEM nanoparticle size) | nanoparticle diameter (method not stated at the place) (S-TEM nanoparticle size; nanoGUMBOS by reprecipitation) | DLS mean size ([1]; listed as [Na] 2 [RB]) | selectivity index (A549 cells) | cell viability decrease, HEK293 ([2]; 24 h) | cell viability, HEK293 ([2]; 24 h, % of control) | IC50 ([3]; nanoGUMBOS, 24 h, four-parameter logistic fit, read-out: IC50 against A549 cells)
O=C([O-])c1c(Cl)c(Cl)c(Cl)c(Cl)c1-c1c2cc(I)c(=O)c(I)c-2oc2c(I)c([O-])c(I)cc12.c1ccc([P+](c2ccccc2)(c2ccccc2)c2ccccc2)cc1.c1ccc([P+](c2ccccc2)(c2ccccc2)c2ccccc2)cc1 [[TPP]2[RB], tetraphenylphosphonium Rose Bengal] | 0.22 | 40.66 nm | 40.66 ± 3.33 nm | statistically significant reductions in cell viability; also recorded: statistically significant decrease in cell viability | 57.2% | below 50% | statistically significant reductions in cell viability; also recorded: statistically significant decrease in cell viability | 1.5 | altered nuclear morphology consistent with apoptotic processes | approximately −30 mV | 2.8 | 45.33 ± 11.53 nm | 0.24 | below 100 nm | – | – | – | – | –
tetrabutylphosphonium Rose Bengal [[TBP]2[RB]] | – | – | – | no statistically significant difference | – | – | no statistically significant difference | – | minimal cellular changes | – | – | – | – | – | – | – | – | – | –
O=C(O)c1c(Cl)c(Cl)c(Cl)c(Cl)c1-c1c2cc(I)c(=O)c(I)c-2oc2c(I)c(O)c(I)cc12 [[Na]2[RB], Rose Bengal disodium salt, reference compound] | 0.58 | 230.9 nm | – | no statistically significant difference | – | 86.7% | no statistically significant difference | – | minimal cellular changes | −18.4 mV | 4.5 | 268.62 ± 74.02 nm | 0.28 | – | 230.90 ± 17.89 nm | – | – | – | –
N.N.[Cl][Pt][Cl] [cisplatin] | – | – | – | – | – | – | – | – | – | – | – | – | – | – | – | under 2 | – | – | –
CCCCCCCCCCCCn1cc[n+](C)c1.CCCCCCCCCCCCn1cc[n+](C)c1.O=C([O-])c1c(Cl)c(Cl)c(Cl)c(Cl)c1-c1c2cc(I)c(=O)c(I)c-2oc2c(I)c([O-])c(I)cc12 [[C12MIm]2[RB], 1-dodecyl-3-methylimidazolium Rose Bengal] | 0.37 | 59.87 ± 8.23 nm | – | statistically significant reductions in cell viability; also recorded: statistically significant decrease in cell viability | 77.4% | – | statistically significant reductions in cell viability; also recorded: statistically significant decrease in cell viability | 2.1 | altered nuclear morphology consistent with apoptotic processes | ≈ −30 mV | 2.5 | 70.31 ± 16.43 nm | 0.23 | – | – | – | 63.1% | 47.1% | 2160 nM and 2200 nM
COc1cccc2c1C(=O)c1c(O)c3c(c(O)c1C2=O)C[C@@](O)(C(=O)CO)C[C@@H]3O[C@H]1C[C@H](N)[C@H](O)[C@H](C)O1 [Doxorubicin] | – | – | – | – | – | – | – | – | – | – | – | – | – | – | – | 1.5 | – | – | –
